Read-outs that look alike come from different tables or passages of the source.
How the values were obtained:
Replicon cells = assay: HCV EC50 determination, replicon luciferase assay; format: cell-based; conditions: Hepatitis C virus, 72 h
Description: Replicon cells were seeded in 96-well plates at a density of 8×10^3 cells per well in 100 μL of culture medium, excluding Geneticin. Compound was serially diluted in 100% DMSO and then added to the cells at a 1:200 dilution, achieving a final concentration of 0.5% DMSO and a total volume of 200 μL. Plates were incubated at 37° C. for 3 days, after which culture medium was removed and cells were lysed in lysis buffer provided by Promega's luciferase assay system. Following the manufacturer's instruction, 100 μL of luciferase substrate was added to the lysed cells and luciferase activity was measured in a TopCount luminometer.

HCV Δ21 NS5b polymerase = biological target: T1, HCV Δ21 NS5b polymerase (Hepatitis C virus genotype 1b, UniProt Q9WMX2); assay: HCV IC50 determination, NS5b polymerase assay; format: biochemical
T1 construct: 75 nM HCV Δ21 NS5b polymerase
Description: Assay Protocol: Either wild type or S282T (Migliaccio, et al, J. Biol. Chem. 2003, 49164-49170; Klumpp, et al., J. Biol. Chem. 2006, 3793-3799) mutant polymerase enzyme was used in this assay. NS5b polymerase assay (40 μL) was assembled by adding 28 μL polymerase mixture (final concentration: 50 mM Tris-HCl at pH 7.5, 10 mM KCL, 5 mM MgCl2, 1 mM DTT, 10 mM EDTA, 4 ng/μL of RNA template, and 75 nM HCV Δ21 NS5b polymerase) to assay plates followed by 4 μL of compound dilution. The polymerase and compound were pre-incubated at 35° C. for 10 minute before the addition of 8 μL of nucleotide substrate mixture (33P-α-labeled competing nucleotide at KM and 0.5 mM of the remaining three nucleotides). The assay plates were covered and incubated at 35° C. for 90 min. Reactions were then filtered through 96-well DEAE-81 filter plates via vacuum. The filter plates were then washed under vacuum with multiple volumes of 0.125 M NaHPO4, water, and ethanol to remove unincorporated label. Plates were then counted on TopCount to assess the level of product synthesis over background controls. The IC50 value is determined using Prism fitting program.

[1] = replicon cells, 3 days at 37° C., luciferase activity, read-out: EC50

## C[C@@]1(O)[C@H](O)[C@@H](CO)O[C@H]1c1scc2c(N)ncnc12 [Compound 1]
Replicon cells; [1]
  EC50: 90 µM

## CC(C)(C)C(=O)SCCOP(=O)(OCCSC(=O)C(C)(C)C)OC[C@H]1O[C@@H](c2scc3c(N)ncnc23)[C@](C)(O)[C@@H]1O [Compound 2]
Replicon cells; [1]
  EC50: 6.1 µM

## C[C@@]1(O)[C@H](O)[C@@H](COP(=O)(O)OP(=O)(O)OP(=O)(O)O)O[C@H]1c1scc2c(N)ncnc12 [Compound 4]
HCV Δ21 NS5b polymerase
  IC50: 0.37 µM

## CC(C)(C)C(=O)SCCOP(=O)(OCCSC(=O)C(C)(C)C)OC[C@H]1O[C@@H](c2scc3c(=O)[nH]c(N)nc23)[C@](C)(O)[C@@H]1O [Compound 62]
Replicon cells; [1]
  EC50: 24 µM

## C[C@@]1(O)[C@H](O)[C@@H](COP(=O)(O)OP(=O)(O)OP(=O)(O)O)O[C@H]1c1scc2c(=O)[nH]c(N)nc12 [Compound 63]
HCV Δ21 NS5b polymerase
  IC50: 0.27 µM

## CCOC(=O)[C@H](C)NP(=O)(OC[C@H]1O[C@@H](c2scc3c(N)ncnc23)[C@](C)(O)[C@@H]1O)Oc1ccccc1 (stereo partly drawn) [Compound 64]
Replicon cells
  EC50: 2.9 µM

Reference: US8012942B2, “Carba-nucleoside analogs for antiviral treatment” (Gilead Sciences, Inc., priority 2009, dated 2011)
